Assay results: paper PMC3401907, “Cellular Uptakes, Biostabilities and Anti-miR-210 Activities of Chiral Arginine-PNAs in Leukaemic K562 Cells” (Chembiochem, 2012)

What was measured:
[1] = tested on: RNA2 (mismatched RNA, G→U); assay: Melting temperature (Tm) of PNA:RNA duplexes, single-mismatch RNA; assay type: binding; settings: UV absorbance at 260 nm, PBS buffer pH 7 with urea 5 M, strand concentration 5 μM
From the text: (§1) Sequence selectivity is a very important issue in view of the use of PNAs in cellular systems, because partial hybridisation might occur with other unrelated miRNAs or, most importantly, with mRNA targets. We analysed the sequence selectivities of our PNAs with stricter models (DNA2 and RNA2) involving single base mismatches (G→T or G→U) located in the middle of the target sequences. In each case the sequence selectivity was confirmed by significant lowering of the melting temperature. The ranges of ΔTm due to the presence of these single mismatches were 8–21 °C for DNA, with the maximum drop in the case of PNA4 and the minimum observed in that of PNA6. For the latter it should be considered that the mismatch was facing the last chiral monomer, preventing the cooperative effect observed in the case of 2D-modifed highly constrained PNA.[22]
(§2) Measurements of Tm values: The Tm values were determined with a Lambda Bio 20 spectrophotometer and a Peltier PTP6 temperature programmer. Thermal denaturation profiles were measured by monitoring the absorbance at 260 nm from 18 to 90 °C with a heating rate of 1 °C min^−1 and recording every 0.1 °C. Measurement conditions: [PNA]=[DNA] or [RNA]=5 μM in PBS buffer [pH 7.0, NaCl (100 mM), NaH2PO4⋅H2O (10 mM), EDTA (0.1 mM)] with urea (5 M).

[2] = tested on: RNA1 (target region of miR-210); assay: Melting temperature (Tm) of PNA:RNA duplexes, full-match RNA; assay type: binding; settings: UV absorbance at 260 nm, strand concentration 5 μM; for Tm, RNA1 in water: PBS buffer pH 7, no urea; for Tm, RNA1 in urea (5 M): PBS buffer pH 7 with urea 5 M
Method: as §2, with “Measurement conditions: [PNA]=[DNA] or [RNA]=5 μM in PBS buffer [pH 7.0, NaCl (100 mM), NaH2PO4⋅H2O (10 mM), EDTA (0.1 mM)] with urea (5 M).” left out

miR-210 = miR-210 content by RT-qPCR analysis; assay type: cell-based, human; settings: K562 cells, 24 h; for miR-210 inhibition upon treatment with mithramycin: PNA 2 μM with MTH 15 nM, relative to pept-1 and MTH; for inhibition of miR-210 bioavailability (miR-210 content): PNA 2 μM, Figure 5 A and B, relative to pept-1
Method: K562 cells were treated with 15 nM mithramycin in the presence of a PNA (2 μM), and after 24 h RNA was isolated and miR-210 was assayed by RT-qPCR analysis. This type of test has been used to evaluate miR content in many studies because it allows the free-miR content to be evaluated. […] Figure 5 A and B reports the obtained data, showing that inhibition of miR bioavailability was induced both with the modified PNA and with the peptide-conjugated one, whereas in the case of PNA1 it was unchanged. […] This might be related to inhibition of pre-miR maturation or to unavailability of the miR to the qRT-PCR analysis due to strong complexation with the PNA. In either case the bioavailability of the miR for targeting other genes should be reduced.
Transfection procedures: Anti-miR-210 PNAs were directly added to the cellular medium to reach the indicated final concentrations. K562 cells were cultured in 24-well plates starting from the initial density of 30 000 cells per mL. MTH was administrated together with anti-miR PNAs.
RNA extraction: Cells were isolated by centrifugation at 1500 rpm for 10 min at 4 °C, washed in PBS and lysed in Tri-reagent (Sigma–Aldrich) according to the manufacturer's instructions. The isolated RNA was washed once with cold ethanol (75 %), dried and dissolved in ultrapure nuclease-free water.
Real-time quantitative PCR: For microRNA quantification with real-time RT-PCR reagents, the primers and probes were obtained from Applied Biosystems. Reverse transcriptase (RT) reactions were performed with a TaqMan MicroRNA Reverse Transcription Kit (Applied Biosystems) for hsa-miR-210, hsa-miR-10a, hsa-miR-93, hsa-miR-99b, hsa-miR-126, hsa-miR-149, hsa-miR-424, hsa-miR-483-5p, hsa-miR-625, hsa-let-7c and the iQTM5 real-time PCR System Instrument (Bio-Rad). Relative expression was calculated by the comparative cycle threshold method and U6 microRNA was used as reference gene to normalise all RNA samples, because it is constant in the assayed samples by miR-profiling and quantitative RT-PCR analysis as previously reported.[25]

[3] = tested on: DNA2 (mismatched DNA, G→T); assay: Melting temperature (Tm) of PNA:DNA duplexes, single-mismatch DNA; assay type: binding; settings: for Tm, DNA2 in urea (5 M): single mismatch, UV absorbance at 260 nm, PBS buffer pH 7 with urea 5 M, strand concentration 5 μM
From the text: as §1, §2

[4] = tested on: DNA1 (full-match antiparallel DNA); assay: Melting temperature (Tm) of PNA:DNA duplexes, full-match DNA; assay type: binding; settings: UV absorbance at 260 nm, strand concentration 5 μM; for Tm, DNA1 in urea (5 M): PBS buffer pH 7 (NaCl 100 mM, NaH2PO4 10 mM, EDTA 0.1 mM) with urea 5 M; for Tm, DNA1 in water: PBS buffer pH 7, no urea, 18 to 90 °C at 1 °C/min
Method: as §2, with “Measurement conditions: [PNA]=[DNA] or [RNA]=5 μM in PBS buffer [pH 7.0, NaCl (100 mM), NaH2PO4⋅H2O (10 mM), EDTA (0.1 mM)] with urea (5 M).” left out

K562 cells [5] = assay: Cellular uptake of fluorescein-labelled PNAs by FACS analysis; assay type: cell-based, human; settings: 24 h incubation; for change of cellular uptake in the presence of serum: medium with serum vs serum-free, FACS
Method: We therefore studied the uptake of backbone-modified PNAs in the same cellular model and compared the obtained results with those observed in the study of PNA1 and PNA2. K562 cells were incubated in the presence of increasing concentrations of fluorescein-labelled PNAs (PNA1–6-Fl) for 24 and 48 h and analysed by fluorescence-activated cell sorting analysis (FACS), giving the results shown in Figure 3. Because different PNA structures could be affected by proteases present in serum, leading to different cellular uptakes, these experiments were conducted both in the presence and in the absence of serum.
Human cell lines and culture conditions: Human leukaemia K562 cells were cultured under humidified CO2 (5 %)/air in RPMI 1640 medium (Sigma) supplemented with foetal bovine serum (FBS, 10 %, Analitical de Mori, Milan, Italy), penicillin (50 units mL^−1) and streptomycin (50 μg mL^−1).[26] Mithramycin (MTH) was from Sigma. Stock solutions of MTH (100 μM) were stored at −20 °C in the dark and diluted immediately before use. Treatment of K562 cells with MTH was carried out by addition of the appropriate drug concentrations at the beginning of the cultures (cells were seeded at 30 000 mL^−1). The medium was not changed during the induction period. To determine antiproliferative activity, cell growth was studied by determining the cell number per mL with a Z1 Coulter Counter (Coulter Electronics, Hialeah, FL, USA). Erythroid differentiated K562 cells containing haemoglobin were detected by specific reaction with a benzidine/hydrogen peroxide solution as reported elsewhere.[26] The final concentration of benzidine was 0.2 % in glacial acetic acid (5 M) and H2O2 (10 %).
(§3) FACS analysis: For determination of fluorescence intensity by FACScan (Becton Dickinson, Franklin Lakes, NJ, USA), cells (either in medium supplemented with serum or under serum-free conditions) were incubated with the indicated concentrations of PNAs for different lengths of time, harvested and washed. The cells (3×10^5) were then analysed with the aid of the CellQuest version 3.3 software (Becton Dickinson), with use of the FL1 channel to detect green fluorescence. The results were expressed as median fold (i.e., the ratio between the median fluorescence intensity values obtained in the presence and in the absence of treatment, respectively). A graphic presentation of data was finally obtained through histograms, showing the number of cells versus the expressed fluorescence intensity. In some experiments we pre-incubated fluorescence-labelled PNAs (2 μM) for 10 min at room temperature in the dark with trypsin/EDTA (0.05 %, 2 and 4 μL) before addition to the cells.

K562 cells [6] = assay: Cellular uptake (FACS) after pre-incubation with trypsin; assay type: cell-based, human; settings: PNA 2 μM pre-incubated 10 min at room temperature with trypsin (0.012–0.025 %), then K562 cells in the absence of serum
Method: In order to explore the effect of protection against proteases further, pre-incubation of the PNA–peptide conjugate PNA2-Fl and the modified PNAs PNA3-Fl, PNA4-Fl, PNA5-Fl and PNA6-Fl was performed with trypsin (0.012–0.025 %) before allowing interaction with target K562 cells in the absence of serum (see Figure 4). […] The embedding of arginine residues into the PNA backbone thus allows efficient cellular uptake to be achieved without the risk of degradation even by a basic amino-acid-specific peptidase. In contrast, the carrier peptide of PNA2-Fl is to a certain degree an Achilles' heel of the molecule, leading to possible degradation by proteases, an effect worth considering in view of possible developments of PNAs as drugs based on anti-miR activity.
as §3

H-C2DArgC2DArgG2DArgC2DArgT2DArgG2DArgT2DArgC2DArgACACGCACAG-NH2 [PNA6, 2D Arg (C2) backbone-modified 18-mer PNA, model 2, stretch of consecutive modified monomers]
Tm, RNA2 in urea (5 M) [1]: 65 °C | Tm, RNA1 in water [2]: >90 °C | Tm, RNA1 in urea (5 M) [2]: 75 °C | miR-210 inhibition upon treatment with mithramycin (miR-210): significant inhibition, but to lesser extents | inhibition of miR-210 bioavailability (miR-210 content) (miR-210): Stronger inhibition | ΔTm due to single mismatch, DNA ([3]; DNA1 vs DNA2 (G→T in the middle of the target), urea 5 M): 8 °C | Tm, DNA2 in urea (5 M) [3]: 69 °C | Tm, DNA1 in urea (5 M) [4]: 77 °C | Tm, DNA1 in water [4]: >90 °C

H-CC2DARGGC2DARGTG2DARGTC2DARGAC2DARGAC2DARGGC2DARGAC2DARG AG-NH2 [PNA5, 2D Arg (C2) backbone-modified 18-mer PNA, model 1, alternating modified monomers]
Tm, RNA2 in urea (5 M) [1]: 62 °C | Tm, RNA1 in water [2]: >90 °C | Tm, RNA1 in urea (5 M) [2]: 78 °C | miR-210 inhibition upon treatment with mithramycin (miR-210): significant inhibition, but to lesser extents | inhibition of miR-210 bioavailability (miR-210 content) (miR-210): less efficient inhibition | Tm, DNA2 in urea (5 M) [3]: 64 °C | Tm, DNA1 in urea (5 M) [4]: 74 °C | Tm, DNA1 in water [4]: >90 °C

Fl-AEEA-CC5LArgGC5LArgTG5LArgTC5LArgAC5LArgAC5LArgGC5LArgAC5LArgAG-NH2 [PNA3-Fl, fluorescein-labelled PNA3]
change of cellular uptake in the presence of serum (K562 cells [5]): only minor decreases in uptake | effect of trypsin pre-incubation on cellular uptake (K562 cells [6]): does not affect uptake

Fl-AEEA-C2DArgC2DArgG2DArgC2DArgT2DArgG2DArgT2DArgC2DArgACACGCACAG-NH2 [PNA6-Fl, fluorescein-labelled PNA6]
change of cellular uptake in the presence of serum (K562 cells [5]): no decreases in uptake | effect of trypsin pre-incubation on cellular uptake (K562 cells [6]): does not affect uptake

Flu-AEEA-R8-CCGCTGTCACACGCACAG-NH2 [PNA2-Fl, fluorescein-labelled R8-conjugated PNA2, reference compound]
change of cellular uptake in the presence of serum (K562 cells [5]): decreased uptake | cellular uptake (internalisation) in the absence of serum (K562 cells [5]; serum-free, FACS FL1 channel): efficiently internalised | effect of trypsin pre-incubation on cellular uptake (K562 cells [6]): trypsin treatment affects the cellular uptake

Fl-AEEA-C5LArgC5LArgG5LArgC5LArgT5LArgG5LArgT5LArgC5LArgACACGCACAG-NH2 [PNA4-Fl, fluorescein-labelled PNA4]
change of cellular uptake in the presence of serum (K562 cells [5]): only minor decreases in uptake | effect of trypsin pre-incubation on cellular uptake (K562 cells [6]): does not affect uptake

Fl-AEEA-CC2DArgGC2DArgTG2DArgTC2DArgAC2DArgAC2DArgGC2DArgAC2DArg AG-NH2 [PNA5-Fl, fluorescein-labelled PNA5]
change of cellular uptake in the presence of serum (K562 cells [5]): no decreases in uptake | effect of trypsin pre-incubation on cellular uptake (K562 cells [6]): does not affect uptake
